This note sets out measurements from patent US10898548B2, “Modulators of protein tyrosine phosphatase and uses thereof” (LEUVAS THERAPEUTICS, priority 2015, dated 2021).

Assay [1] deals with LFA-1. Nature of the assay: LFA-1 high affinity state detection with 327C mAb. The assay is classed as cell-based, human. To be noted: CTRL 100; for LFA-1 high affinity state, percentages of fold increases over the control: 40 μM P1 or P1-TKIP, 100 μM AG490, 200 μM WHI-P154, 1 hour, 50 nM fMLP 60 sec; for LFA-1 high affinity state, mean fluorescence intensity relative to the fMLP-stimulated control: monocytes, 50 nM fMLP 1 min, concentration not given; for LFA-1 high affinity state, percentages of fold-increase over control: 50 μM TAT peptides or 0.5 μM TAT-ICD, 1 hour, 50 nM fMLP 60 seconds. The method, then: The ability of P1-WD to inhibit triggering of LFA-1 to a high-affinity state was assessed using a specific reporter monoclonal antibody 327C, which detects the fully extended LFA-1 conformational epitope corresponding to heterodimer high affinity state. Briefly, freshly isolated human monocytes were suspended in standard adhesion buffer at 2×10^6/ml were stimulated under stirring at 37° C. for 1 min with 50 nM fMLP in the presence of 10 µg/ml 327C mAb. After rapid washing, the cells were stained with FITC-conjugated secondary antibody and analyzed by cytofluorimetric quantification (Table 4). Data are mean fluorescence intensity measured by flow cytometry relative to the fMLP-stimulated control (CTRL) cells.
The ability of TAT-ICD to trigger the high affinity state of LFA-1 was tested as described in Example 2, Table 4 and the results are in Table 8. Human monocytes were treated with buffer (CTRL), 50 μM TAT peptides, or 0.5 μM TAT-ICD for 1 hour at 37° C. and stimulated with 50 nM fMLP for 60 seconds. Data are the percentages of fold-increase over control; mean values of 6 experiments
Briefly, LFA-1 high affinity state detection. Human monocytes were treated with buffer (CTRL=control), 40 μM P1 or P1-TKIP peptides, 100 μM AG490 or 200 μM WHI-P154 for 1 hour at 37° C. and stimulated with 50 nM fMLP for 60 sec. LFA-1 high affinity state conformer was detected by cytofluorimetric analysis with 327C antibody. Shown are percentages of fold increases over the control; mean values of 5 experiments.

Assay [2] has as its system human primary monocytes. Nature of the assay: underflow adhesion of monocytes on E-selectin/ICAM-1 (BioFlux). The class given is cell-based. As to conditions: for arrest 1 sec, flow assay / arrest 10 sec, flow assay / rolling cells, flow assay: Table 3, concentration not given; for arrest 1 sec, flow assay: CTRL 24; for rolling cells, flow assay: CTRL 50. As to the method: Flow-adhesion assays were also performed to test the ability of the P1-WD peptide to inhibit adhesion of human monocytes under flow conditions. Briefly, Human primary monocytes were suspended at 1×10^6/ml in standard adhesion. Cell behavior in underflow conditions was analyzed with the BioFlux 200 system (Fluxion Biosciences). 48-well plate microfluidics were first co-coated overnight at room temperature with 2.5 μg/ml human E-selectin and 5 μg/ml human ICAM-1 in PBS. Immediately before use, microfluidic channels were washed with PBS and then coated with 10 nM fMLP in PBS for 3 h at room temperature. After extensive washing of microfluidics with adhesion buffer, cells were fluxed at 2 dyne/cm^2 wall shear stress and the behavior of interacting cells was digitally recorded with a fast CCD videocamera (25 frames/s). Single areas of 0.2 mm^2 were recorded for at least 120 s. Interactions of 40 ms or longer were considered significant and scored. Cells that remained firmly adherent for at least 1 s were considered fully arrested. Cells arrested for at least 1 s and then detached, or for 10 s and then remained adherent, were scored separately and plotted as independent groups. Interacting cells behaviors were automatically quantified with BeQuanti.
Briefly, human monocytes were treated with buffer (CTRL), 50 μM TAT peptides, or 0.5 μM TAT-ICD for 1 hour at 37° C. Data are percentages of rolling and arrested cells for the indicated times over total interacting cells; mean values of 4 experiments.
Briefly, Human monocytes were treated with buffer (CTRL=control), 100 μM AG490, 40 μM P1 or P1-TKIP peptides or 200 μM WHI-P154 for 1 hour at 37° C. Shown are percentages of rolling and arrested cells for the indicated times over total interacting cells; mean values of 5 experiments; errors bars are SDs.

Assay [3] has as its system human primary monocytes. Nature of the assay: static adhesion of fMLP-stimulated monocytes to ICAM-1. As to conditions: CTRL 100; for fMLP-induced adhesion to ICAM-1: 40 μM P1 or P1-TKIP, 100 μM AG490, 200 μM WHI-P154, 1 hour, 50 nM fMLP 60 sec; for fMLP-triggered static adhesion to ICAM-1: monocytes. The assay is classed as cell-based. As to the method: We investigated the functional effect of PTPRG activation on integrin activation and mediated adhesion by chemoattractants in human primary monocytes and PMNs in a static and flow adhesion assays. Briefly, human primary monocytes or polymorphonuclear cells were suspended at 5×10^6/ml in standard adhesion buffer. Adhesion assays were performed on 18-well glass slides coated with 1 mg/ml human fibrinogen or with 1 μg/ml human ICAM-1 in PBS; 20 μl of cell suspension were added to the coated wells and stimulated for 1 min at 37° C. with 5 μl of fMLP, 0.05 μM final concentration. After rapid washing, adherent cells were fixed in ice-cold 1.5% glutaraldehyde in PBS, and still images of adherent cells in 0.2 mm^2 fields were acquired al 20× phase contrast magnification, NA 0.40, with a charge-coupled device camera (ICD-42B; Ikegami) connected to an inverted microscope (IX50; Olympus). Image acquisition and computer-assisted enumeration of adherent cells were performed with ImageJ (National Institute of Health).
We then investigated the functional effect of TAT-ICD on integrin activation and mediated adhesion by chemoattractants. Static adhesion assays were performed as described in Example 2. […] Data are mean number of adherent cells in 5 experiments in triplicate.
To evaluate whether JAK2 mediates chemoattractant-induced adhesion of human monocytes to beta-2 integrin substrates human monocytes were treated control buffer or P1 or with the three JAK inhibitors. Briefly, human monocytes were treated with buffer (CTRL=control), or 40 μM P1 or P1-TKIP peptides, 100 μM AG490 or 200 μM WHI-P154 for 1 hour at 37° C. and stimulated with 50 nM fMLP for 60 sec.; data are mean and standard deviation (SD) of 6 experiments in triplicate.
Human primary monocytes were isolated from buffy coats from healthy donors and pre-incubated for 30 minutes at room temperature with our without 0.075 micromolar PTPX. Standard adhesion assays on ICAM-1 coated glass slides. Cell suspensions were added to the coated wells for 1 minute, stimulated for 1 minute at 37° C. with […] fMLP. Non-adherent cells were washed away and adherent cells were fixed in ice-cold 1.5% glutaraldehyde in PBS and adherent cells were counted using computer assisted automatic quantification. Data are from a representative experiment and are the mean and standard deviation of 24 measurements per condition (Table 35).

Where [4] appears, read: 100 μM AG490, 40 μM P1 or P1-TKIP, 200 μM WHI-P154, 1 hour, CTRL 26.
Where [5] appears, read: 100 μM AG490, 40 μM P1 or P1-TKIP, 200 μM WHI-P154, 1 hour, CTRL 34.
Where [6] appears, read: 100 μM AG490, 40 μM P1 or P1-TKIP, 200 μM WHI-P154, 1 hour, CTRL 40.
Where [7] appears, read: 50 μM TAT peptides or 0.5 μM TAT-ICD, 1 hour at 37° C., CTRL 12.
[8] abbreviates: 50 μM TAT peptides or 0.5 μM TAT-ICD, 1 hour at 37° C., CTRL 22.
Setting [9] is: 50 μM TAT peptides or 0.5 μM TAT-ICD, 1 hour at 37° C., CTRL 66.

As to `N#C/C(=C/c1ccc(O)c(O)c1)C(=O)NCc1ccccc1` [AG490], the “LFA-1 high affinity state, percentages of fold increases over the control” value in assay [1] came out at 66%. Moreover, the “cells arrested 10 sec over total interacting cells, flow assay” value in assay [2] (setting [4]) was 10%. For the same compound, the “cells arrested 1 sec over total interacting cells, flow assay” value in assay [2] (setting [5]) is given as 20%. For the same compound, the “rolling cells over total interacting cells, flow assay” value in assay [2] (setting [6]) was determined as 70%. The fMLP-induced adhesion to ICAM-1 in assay [3] was 23.5%.

Turning to `COc1cc2ncnc(Nc3ccc(O)c(Br)c3)c2cc1OC` [WHI-P154], the “LFA-1 high affinity state, percentages of fold increases over the control” value in assay [1] was determined as 58%. Moreover, the “cells arrested 10 sec over total interacting cells, flow assay” value in assay [2] (setting [4]) worked out at 14%. Further, the “cells arrested 1 sec over total interacting cells, flow assay” value in assay [2] (setting [5]) stood at 20%. For the same compound, the “rolling cells over total interacting cells, flow assay” value in assay [2] (setting [6]) is on record as 66%. Also, in assay [3], the fMLP-induced adhesion to ICAM-1 was found to be 6.4%.

On to “P1-WD: fusion Trojan peptide SEQ ID 3: Penetratin, glycine, PTPRG wedge domain aa 831-856; RQIKIWFQNRRMKWKKGKQFVKHIGELYSNNQHGFSEDFEEVQ (listed as Homo sapiens)”, for which, in assay [1], the “LFA-1 high affinity state, mean fluorescence intensity relative to the fMLP-stimulated control” value worked out at 22. The “arrest 1 sec, flow assay” value in assay [2] turned out to be 9. Besides, in assay [2] (CTRL 26), the “arrest 10 sec, flow assay” value came to 11. Besides, in assay [2], the “rolling cells, flow assay” value came out at 80. Also, the “fMLP-triggered static adhesion to ICAM-1” value in assay [3] (P1-WD 10 micromolar) came to 78; in assay [3] (P1-WD 25 micromolar), 40; in assay [3] (P1-WD 50 micromolar) it was 19.

For “P1: Penetratin delivery peptide, 16 aa RQIKIWFQNRRMKWKK (SEQ ID 4), control [reference compound]”, in assay [1], the “LFA-1 high affinity state, percentages of fold increases over the control” value was 90% and the “LFA-1 high affinity state, mean fluorescence intensity relative to the fMLP-stimulated control” value amounted to 91. Further, the “cells arrested 10 sec over total interacting cells, flow assay” value in assay [2] (setting [4]) amounted to 30%. Moreover, the “cells arrested 1 sec over total interacting cells, flow assay” value in assay [2] (setting [5]) stood at 26%. Moreover, the “rolling cells over total interacting cells, flow assay” value in assay [2] (setting [6]) is on record as 44%. In assay [2], the “arrest 1 sec, flow assay” value was 32 and the “rolling cells, flow assay” value came out at 38. The “arrest 10 sec, flow assay” value in assay [2] (CTRL 26) was determined as 30. The compound also displayed a fMLP-induced adhesion to ICAM-1 in assay [3] of 101%. In assay [3] (control peptide, concentration not given), the “fMLP-triggered static adhesion to ICAM-1” value is listed as 102.

In the case of “TAT (GRKKRRQRRRPPQ; listed as Homo sapiens) [reference compound]”, the “LFA-1 high affinity state, percentages of fold-increase over control” value in assay [1] turned out to be 85.3%. In assay [2] (setting [7]), the “rolling cells over total interacting cells, flow assay” value is listed as 14%. For the same compound, the “cells arrested 1 sec over total interacting cells, flow assay” value in assay [2] (setting [8]) is listed as 25%. Also, the “cells arrested 10 sec over total interacting cells, flow assay” value in assay [2] (setting [9]) is reported as 61%. Also, the results for the “fMLP-triggered static adhesion to ICAM-1” value in assay [3] (0.5 μM) and in assay [3] (1 μM) were 100 and 110, respectively.

As to “TAT-ICD: fusion recombinant protein SEQ ID 5: PTPRG intracellular domain aa 797-1445 fused to 13 aa TAT sequence”, the “LFA-1 high affinity state, percentages of fold-increase over control” value in assay [1] came out at 24.3%. Further, in assay [2] (setting [7]), the “rolling cells over total interacting cells, flow assay” value is given as 79%. Moreover, the “cells arrested 1 sec over total interacting cells, flow assay” value in assay [2] (setting [8]) worked out at 10%. For the same compound, the “cells arrested 10 sec over total interacting cells, flow assay” value in assay [2] (setting [9]) turned out to be 11%. For the same compound, the “fMLP-triggered static adhesion to ICAM-1” value in assay [3] (0.01 μM) is on record as 48; in assay [3] (0.05 μM) it was 36; in assay [3] (0.10 μM) it was 30; in assay [3] (0.5 μM) it was 14; in assay [3] (1 μM), 10.
